Patent US9249111B2, “Substituted quinoxalines as B-RAF kinase inhibitors” (NEUPHARMA, INC., priority 2011, dated 2016)

Assays:
A549 cells = experiment: MTT cell growth inhibition assay, A549 cells; type: cell-based; details: Homo sapiens, 72 h compound exposure
Experimental: (§1) Inhibition of cell growth by compounds was measured using MTT assay (Mosmann, T., Journal of Immunological Methods, 1983, 65, 55-63). Tumor cell lines were purchased from ATCC (American Type Culture Collection, Manassas, Va.). All cell lines were maintained in RPMI 1640 (Hyclone) supplemented with 10% fetal bovine serum (FBS, Hyclone), glutamine (2 mM, Hyclone), and antibiotics (penicillin 100 U/mL and streptomycin 50 μg/mL) at 37° C. in a humidified atmosphere of 5% CO2 in air. Taxol (as a positive control, Sigma) and compounds were dissolved in DMSO (Sigma), and the final concentration of DMSO in the medium was 1%. Tumor cells were plated in 96-well plates at densities of about 4000 cells/well of a 96-well plate and allowed to adhere/grow for 24 h. They were then treated with various concentrations of drug for 72 h. 3-(4,5-Dimethylthiazol-2-yl)-2,5-diphenyltetrazolium bromide (MTT, Sigma) was used to determine the number of viable cells at the time of compound addition and the number of cells remaining after 72 h compound exposure. The number of cells remaining after 72 h was compared to the number of viable cells at the time of compound addition by measuring the absorbance at 570 nm, allowing for the calculation of growth inhibition.
(§2) All concentrations of compounds were tested in triplicate and controls were averaged over 4 wells. IC50 was calculated by plotting the concentration of compound vs the percentage of inhibition in treated wells using GraphPad Prism 5. […] The scale utilized in Table 2 is as follows: […], ++ between 1000 and 5000 nM, and + greater than 5000 nM.

A375 cells = experiment: MTT cell growth inhibition assay, A375 cells; type: cell-based; details: Homo sapiens, A-375, 72 h compound exposure
Experimental: as §1, §2

BRAF V600E = molecular target: T1, BRAF V600E (Homo sapiens, UniProt P15056, V600E); experiment: Z'-LYTE kinase inhibition assay (Invitrogen), BRAF V600E; type: biochemical; details: Z'-LYTE method; for inhibition at 1 µM: compound at 1 μM
T1 construct: purchased Invitrogen
T1 sequence (P15056 whole entry V600E): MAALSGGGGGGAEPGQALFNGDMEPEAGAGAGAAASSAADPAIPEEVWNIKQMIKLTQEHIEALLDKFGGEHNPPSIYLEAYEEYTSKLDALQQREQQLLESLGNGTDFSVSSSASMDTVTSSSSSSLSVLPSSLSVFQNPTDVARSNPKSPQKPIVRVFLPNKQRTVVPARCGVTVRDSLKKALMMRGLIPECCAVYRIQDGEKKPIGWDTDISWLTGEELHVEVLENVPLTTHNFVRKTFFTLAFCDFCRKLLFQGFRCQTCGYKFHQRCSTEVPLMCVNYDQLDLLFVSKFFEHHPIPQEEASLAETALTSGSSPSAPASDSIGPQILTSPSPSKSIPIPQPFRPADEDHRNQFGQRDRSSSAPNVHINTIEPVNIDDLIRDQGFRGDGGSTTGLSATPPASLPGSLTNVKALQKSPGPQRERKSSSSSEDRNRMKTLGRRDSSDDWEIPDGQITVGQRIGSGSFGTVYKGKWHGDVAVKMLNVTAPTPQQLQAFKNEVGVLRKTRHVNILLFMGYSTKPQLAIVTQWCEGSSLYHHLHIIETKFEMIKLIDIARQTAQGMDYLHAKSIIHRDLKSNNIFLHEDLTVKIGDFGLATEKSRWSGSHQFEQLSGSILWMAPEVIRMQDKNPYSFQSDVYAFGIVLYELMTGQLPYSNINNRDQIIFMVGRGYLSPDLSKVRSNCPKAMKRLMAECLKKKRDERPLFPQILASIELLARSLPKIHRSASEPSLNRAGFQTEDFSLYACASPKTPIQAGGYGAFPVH
Experimental: (§3) Inhibitory activities of compounds against BRAF or BRAF V600E were measured by Invitrogen using Z′-LYTE® Method as briefly described in the following.
(§4) 4× Test compounds were dissolved in 1% DMSO. […] ATP solutions were diluted to a 4×ATP working concentration in Kinase Buffer (50 mM HEPES pH 7.5, 0.01% BRIJ-35, 10 mM MgCl2, 1 mM EGTA). Reaction started by 30-second shaking of mixture consisting of 2.5 μL4× test compound, 2.5 μL 2× kinase reaction mixture and 2.5 μL 4×ATP Solution on Bar-coded Corning, low volume NBS, black 384-well plate (Corning Cat. #3676). Then the mixture was incubated for 60-minute at room temperature for the kinase reaction, followed by addition of 5 μL of a 1:1024 dilution of development reagent A and 30-second plate shake. The mixture was then incubated for another 60-minute at room temperature for development reaction. Finally fluorescence was read by plate reader. IC50 was calculated by plotting the concentration of compound vs the percentage of inhibition in treated wells using GraphPad Prism 5.

BRAF = molecular target: T2, BRAF (Homo sapiens, UniProt P15056); experiment: Z'-LYTE kinase inhibition assay (Invitrogen), BRAF; type: biochemical; details: compound at 1 μM; Z'-LYTE method
T2 construct: purchased Invitrogen
T2 sequence (P15056 whole entry): as the sequence (P15056 whole entry V600E) above, with E600V counted along it
Experimental: as §3, §4

Work on `COc1cnc2ccc(C(=O)c3c(F)ccc(O)c3F)cc2n1` [Compound C10, (2,6-difluoro-3-hydroxyphenyl)(3-methoxyquinoxalin-6-yl)methanone] yielded an IC50 (A549 cells) of 1 to 5 µM and an IC50 (A375 cells) of 1 to 5 µM.
`O=C(c1ccc2nccnc2c1)c1c(F)ccc(OCc2cccc(Cl)c2)c1F` [Compound C02, (3-((3-chlorobenzyl)oxy)-2,6-difluorophenyl)(quinoxalin-6-yl)methanone] was tested, and the IC50 (A549 cells) was over 5 µM, the IC50 (A375 cells) was over 5 µM and the inhibition at 1 µM (BRAF V600E) was 30 to 89%. The inhibition at 1 µM (BRAF) was 30 to 89%.
Molecule `O=C(c1ccc2nccnc2c1)c1c(F)ccc(O)c1F` [Compound C03, (2,6-difluoro-3-hydroxyphenyl)(quinoxalin-6-yl)methanone] has an IC50 (A549 cells) of 1 to 5 µM and an IC50 (A375 cells) of under 1 µM.
`O=C(c1ccc2ncc(-c3cccnc3)nc2c1)c1c(F)ccc(O)c1F` [Compound C07, (2,6-difluoro-3-hydroxyphenyl)(3-(pyridin-3-yl)quinoxalin-6-yl)methanone] gave an IC50 (A549 cells) of 1 to 5 µM and an IC50 (A375 cells) of 1 to 5 µM.
`O=C(c1ccc2ncc(-c3ccccc3)nc2c1)c1c(F)ccc(O)c1F` [Compound C08, (2,6-difluoro-3-hydroxyphenyl)(3-phenylquinoxalin-6-yl)methanone] was tested, and the IC50 (A549 cells) was 1 to 5 µM and the IC50 (A375 cells) was under 1 µM.
In the case of `COc1ccc(F)c(C(=O)c2ccc3nccnc3c2)c1F` [Compound C04, (2,6-difluoro-3-methoxyphenyl)(quinoxalin-6-yl)methanone], the IC50 (A549 cells) is reported as 1 to 5 µM, the IC50 (A375 cells) is reported as 1 to 5 µM and the inhibition at 1 µM (BRAF V600E) is reported as 30 to 89%. It also gave an inhibition at 1 µM (BRAF) of under 30%.
Work on `O=C(c1ccc2nccnc2c1)c1c(F)ccc(OCc2ccccc2)c1F` [Compound C06, (3-(benzyloxy)-2,6-difluorophenyl)(quinoxalin-6-yl)methanone] yielded an IC50 (A549 cells) of under 1 µM, an IC50 (A375 cells) of under 1 µM and an IC50 (BRAF V600E; read-out: IC50 against BRAF V600E) of under 0.05 µM. For the same molecule, the inhibition at 1 µM (BRAF V600E) was over 89% and the inhibition at 1 µM (BRAF) was 30 to 89%.
Work on `O=C(c1ccc2nccnc2c1)c1c(F)ccc(OCc2cccc(F)c2)c1F` [Compound C01, (2,6-difluoro-3-((3-fluorobenzyl)oxy)phenyl)(quinoxalin-6-yl)methanone] yielded an IC50 (A549 cells) of over 5 µM, an IC50 (A375 cells) of over 5 µM and an inhibition at 1 µM (BRAF V600E) of 30 to 89%. It also gave an inhibition at 1 µM (BRAF) of 30 to 89%.
`N#Cc1cnc2ccc(C(=O)c3c(F)ccc(O)c3F)cc2n1` [Compound C09, 7-(2,6-difluoro-3-hydroxybenzoyl)quinoxaline-2-carbonitrile] showed an IC50 (A549 cells) of 1 to 5 µM and an IC50 (A375 cells) of 1 to 5 µM.
Molecule `O=C(c1ccc2ncc(Cl)nc2c1)c1c(F)ccc(O)c1F` [Compound C05, (3-chloroquinoxalin-6-yl)(2,6-difluoro-3-hydroxyphenyl)methanone] has an IC50 (A549 cells) of 1 to 5 µM and an IC50 (A375 cells) of under 1 µM.
